Source: patent publication US20240124454A1, “TRICYCLIC COMPOUND AND USE THEREOF” (NANJING ZAIMING PHARMACEUTICAL CO., LTD., priority 2020, published 2024)
Read-outs that look alike come from different tables or passages of the source.

Target: MAT2A (Homo sapiens (Human), UniProt P31153)
Assay: MAT2A biochemical test (inorganic phosphate colorimetric, PiColorLock)
Settings: read-out: MAT2A inhibitory Activity IC50
From the text: Test Example 1. Biochemical Test
The brief introduction of the test principle: L-methionine and ATP can be converted into SAM, inorganic phosphate, and inorganic diphosphate under the catalysis of MAT2A enzymes. The content of inorganic phosphate in the sample can be quantitatively determined by adding a developer such as ammonium molybdate or the like to the enzymatic reaction mixture, thereby reflecting the enzymatic activity of MAT2A.
Reference: The experiment referred to the method disclosed in patent WO2018045071.
Material: MAT2A screening kits were purchased from BPS bioscience (U.S.); 384-well plates were purchased from Corning Company (U.S.). • 1. MAT2A protein (Pharmaron Beijing Co., Ltd.); • 2. L-methionine (Sigma #M9625-5G) • 3. ATP (Sigma #A7699-1G) • 4. KCl (Sigma #60142-500ML-F) • 5. Tris (Sigma #T2663-1L) • 6. MgCl2 (Sigma #M1028) • 7. EDTA (Invitrogen #AM9260G) • 8. BSA (Sangon Biotech #A500023-0100) • 9. PiColorLock (abcam #ab270004)
Detection method: In the experimental group, the test compound was dissolved in DMSO, diluted to a final concentration of 10 μM using Echo, and diluted 3-fold. 80 nL of the dilution was transferred to a 384-well plate.
The experimental buffer (50 mM Tris, 50 mM KCl, 15 mM MgCl2, 100 μM EDTA, 0.005% BSA) was prepared. The MAT2A protein was diluted with the experimental buffer (at final concentration of […]). 40 μL of 2×MAT2A solution was added to the 384-well plate. The plate was centrifuged at 1000 rpm for 1 min and incubated at room temperature for 120 min.
L-methionine and ATP (the final concentration of L-methionine was […] and the final concentration of ATP was 400 μM) were diluted with the experimental buffer. 40 μL of 2×L-methionine and ATP solution was added to initiate the reaction. The plate was centrifuged at 1000 rpm for 1 min and incubated at room temperature for 90 min.
The PiColorLock™ reaction catalyst was mixed with the PiColorLock™ buffer at a ratio of 1:100 according to the instructions. 20 μL was added to each well, and the plate was shaken for 30 s. 8 μL stabilizing reagent was added, and the plate was shaken for 30 s. The signal values were measured after 30 min of incubation at room temperature.
A negative control group and a positive control group were respectively used as Bottom and Top. The negative control group was not added with MAT2A protein, and other operations were consistent with those of the experimental group. The positive control group was not added with the test compound, only added with DMSO in the same volume, and other operations were consistent with those of the experimental group.
The % Compound inhibition was calculated and fitted to give the IC50 of the compound.
% Compound inhibition=1-100%×(Signal−Bottom)/(Top−Bottom).
Signal referred to the signal value of the experimental group, Bottom referred to the average signal value of the negative control group, and Top referred to the average signal value of the positive control group.
Under the condition of this experiment, the inhibitory effect of the test compound on MAT2A can be expressed as the IC50 of the inhibition on the phosphate production level during the enzymatic reaction.

Chain of MAT2A (P31153 whole entry): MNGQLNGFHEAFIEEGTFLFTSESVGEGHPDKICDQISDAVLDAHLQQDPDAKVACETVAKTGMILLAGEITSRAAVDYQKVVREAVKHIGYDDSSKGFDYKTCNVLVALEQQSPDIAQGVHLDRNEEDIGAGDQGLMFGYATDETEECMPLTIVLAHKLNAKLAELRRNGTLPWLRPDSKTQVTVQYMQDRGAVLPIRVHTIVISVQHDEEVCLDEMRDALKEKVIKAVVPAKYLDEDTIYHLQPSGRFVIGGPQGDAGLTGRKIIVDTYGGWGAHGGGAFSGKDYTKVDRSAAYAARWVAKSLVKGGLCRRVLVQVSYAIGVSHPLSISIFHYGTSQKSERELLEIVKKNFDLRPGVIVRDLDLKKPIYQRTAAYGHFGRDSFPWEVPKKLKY

Row | SMILES | IC50 (class symbols) [nM] | IC50 (numeric values) [nM]
1 | Cc1ccccc1-n1c(=O)c2ncn(C)c2c2ccc(C(F)(F)F)nc21 [Compound 31, 1-methyl-5-(2-methylphenyl)-7-(trifluoromethyl)-1,5-dihydro-4H-imidazo[4,5-c][1,8]naphthyridin-4-one] | 100 to 500 | 159
2 | Cn1cnc2c(=O)n(-c3ccc(F)cc3Cl)c3nc(C(F)(F)F)ccc3c21 [Compound 32, 5-(2-chloro-4-fluorophenyl)-1-methyl-7-(trifluoromethyl)-1,5-dihydro-4H-imidazo[4,5-c][1,8]naphthyridin-4-one] | 100 to 500 | 119
3 | CC(C)c1ccccc1-n1c(=O)c2ncn(C)c2c2ccc(C(F)(F)F)nc21 [Compound 34, 5-(2-isopropylphenyl)-1-methyl-7-(trifluoromethyl)-1,5-dihydro-4H-imidazo[4,5-c][1,8]naphthyridin-4-one] | < 100 | 73.1
4 | O=c1c2ocnc2c2ccc(C(F)(F)F)nc2n1-c1ccccc1Cl [Compound 51, 5-(2-chlorophenyl)-7-(trifluoromethyl)oxazolo[5,4-c][1,8]naphthyridin-4(5H)-one] | 100 to 500 | 182
5 | Cc1ccc2c3c(ncn3C)c(=O)n(-c3ccccc3Cl)c2n1 [Compound 56, 5-(2-chlorophenyl)-1,7-dimethyl-1,5-dihydro-4H-imidazo[4,5-c][1,8]naphthyridin-4-one] | < 100 | 73.7
6 | COc1ccc(-n2c(=O)c3ncn(C)c3c3ccc(C(F)(F)F)nc32)cc1 [Compound 59, 5-(4-methoxyphenyl)-1-methyl-7-(trifluoromethyl)-1,5-dihydro-4H-imidazo[4,5-c][1,8]naphthyridin-4-one] | 100 to 500 | 252
7 | Cn1nccc1-n1c(=O)c2ncn(C)c2c2ccc(C(F)(F)F)nc21 [Compound 60, 1-methyl-5-(1-methyl-1H-pyrazol-5-yl)-7-(trifluoromethyl)-1,5-dihydro-4H-imidazo[4,5-c][1,8]naphthyridin-4(5H)-one] | 100 to 500 | –
8 | CCn1cnc2c(=O)n(-c3ccccc3Cl)c3nc(C(F)(F)F)ccc3c21 [Compound 61, 5-(2-chlorophenyl)-1-ethyl-7-(trifluoromethyl)-1,5-dihydro-4H-imidazo[4,5-c][1,8]naphthyridin-4-one] | 100 to 500 | 102
9 | Cn1cnc2c(=O)n(-c3ccc(Cl)cc3Cl)c3nc(C(F)(F)F)ccc3c21 [Compound 62, 5-(2,4-dichlorophenyl)-1-methyl-7-(trifluoromethyl)-1,5-dihydro-4H-imidazo[4,5-c][1,8]naphthyridin-4-one] | 100 to 500 | 251
10 | Cn1cnc2c(=O)n(-c3cccc(F)c3)c3nc(C(F)(F)F)ccc3c21 [Compound 63, 5-(3-fluorophenyl)-1-methyl-7-(trifluoromethyl)-1,5-dihydro-4H-imidazo[4,5-c][1,8]naphthyridin-4-one] | < 100 | 48.1
11 | Cc1ncccc1-n1c(=O)c2ncn(Cc3cnn(C)c3)c2c2ccc(C(F)(F)F)nc21 [Compound 74, 1-((1-methyl-1H-pyrazol-4-yl)methyl)-5-(2-methylpyridin-3-yl)-7-(trifluoromethyl)-1,5-dihydro-4H-imidazo[4,5-c][1,8]naphthyridin-4-one] | 100 to 500 | 140
12 | Cc1ncccc1-n1c(=O)c2ncoc2c2ccc(Cl)cc21 [Compound 83, 7-chloro-5-(2-methylpyridin-3-yl)oxazolo[4,5-c]quinolin-4(5H)-one] | < 100 | 54.7

Now from value to compound:

Row | IC50 (class symbols) [nM] | IC50 (numeric values) [nM] | SMILES
13 | < 100 | 67.6 | COc1ccccc1-n1c(=O)c2ncn(C)c2c2ccc(C(F)(F)F)nc21 [Compound 33, 5-(2-methoxyphenyl)-1-methyl-7-(trifluoromethyl)-1,5-dihydro-4H-imidazo[4,5-c][1,8]naphthyridin-4-one]
14 | 100 to 500 | 113 | O=c1c2ncn(CCO)c2c2ccc(C(F)(F)F)nc2n1-c1ccccc1Cl [Compound 50, 5-(2-chlorophenyl)-1-(2-hydroxyethyl)-7-(trifluoromethyl)-1,5-dihydro-4H-imidazo[4,5-c][1,8]naphthyridin-4-one]
15 | < 100 | 47.2 | Cn1cnc2c(=O)n(-c3cccc(C#N)c3)c3nc(C(F)(F)F)ccc3c21 [Compound 52, 3-(1-methyl-4-oxo-7-(trifluoromethyl)-1,4-dihydro-5H-imidazo[4,5-c][1,8]naphthyridin-5-yl)benzonitrile]
16 | 100 to 500 | 314 | CN(C)CCn1cnc2c(=O)n(-c3ccccc3Cl)c3nc(C(F)(F)F)ccc3c21 [Compound 53, 5-(2-chlorophenyl)-1-(2-(dimethylamino)ethyl)-7-(trifluoromethyl)-1,5-dihydro-4H-imidazo[4,5-c][1,8]naphthyridin-4-one]
17 | 500 to 1000 | 530 | CNCCn1cnc2c(=O)n(-c3ccccc3Cl)c3nc(C(F)(F)F)ccc3c21 [Compound 54, 5-(2-chlorophenyl)-1-(2-(methylamino)ethyl)-7-(trifluoromethyl)-1,5-dihydro-4H-imidazo[4,5-c][1,8]naphthyridin-4-one]
18 | 100 to 500 | 296 | NCCn1cnc2c(=O)n(-c3ccccc3Cl)c3nc(C(F)(F)F)ccc3c21 [Compound 55, 1-(2-aminoethyl)-5-(2-chlorophenyl)-7-(trifluoromethyl)-1,5-dihydro-4H-imidazo[4,5-c][1,8]naphthyridin-4-one]
19 | < 100 | 47.3 | Cn1cnc2c(=O)n(-c3cccc(F)c3Cl)c3cc(C(F)(F)F)ccc3c21 [Compound 66, 5-(2-chloro-3-fluorophenyl)-1-methyl-7-(trifluoromethyl)-1,5-dihydro-4H-imidazo[4,5-c]quinolin-4-one]
20 | 100 to 500 | 282 | Cn1cnc2c(=O)n(-c3ccc(OC(F)F)cn3)c3nc(C(F)(F)F)ccc3c21 [Compound 69, 5-(5-(difluoromethoxy)pyridin-2-yl)-1-methyl-7-(trifluoromethyl)-1,5-dihydro-4H-imidazo[4,5-c][1,8]naphthyridin-4-one]
21 | 500 to 1000 | 978 | Cn1cnc2c(=O)n(-c3ccc(OC(F)F)c(F)c3)c3nc(C(F)(F)F)ccc3c21 [Compound 71, 5-[4-(difluoromethoxy)-3-fluorophenyl]-1-methyl-7-(trifluoromethyl)-1,5-dihydro-4H-imidazo[4,5-c][1,8]naphthyridin-4-one]
22 | < 100 | 71.7 | Cc1ncccc1-n1c(=O)c2ncn(C)c2c2cnc(C(F)(F)F)nc21 [Compound 75, 1-methyl-5-(2-methylpyridin-3-yl)-7-(trifluoromethyl)-1,5-dihydro-4H-imidazo[4′,5′:4,5]pyrido[2,3-d]pyrimidin-4-one]
23 | 100 to 500 | 201 | Cn1cnc2c(=O)n(-c3cncnc3)c3nc(C(F)(F)F)ccc3c21 [Compound 76, 1-methyl-5-(pyrimidin-5-yl)-7-(trifluoromethyl)-1,5-dihydro-4H-imidazo[4,5-c][1,8]naphthyridin-4-one]
24 | 100 to 500 | 337 | Cn1cnc2c(=O)n(-c3cnccn3)c3nc(C(F)(F)F)ccc3c21 [Compound 77, 1-methyl-5-(pyrazin-2-yl)-7-(trifluoromethyl)-1,5-dihydro-4H-imidazo[4,5-c][1,8]naphthyridin-4-one]
25 | < 100 | 80.2 | Cn1cnc2c(=O)n(-c3cccc(F)c3F)c3nc(C(F)(F)F)ccc3c21 [Compound 78, 5-(2,3-difluorophenyl)-1-methyl-7-(trifluoromethyl)-1,5-dihydro-4H-imidazo[4,5-c][1,8]naphthyridin-4-one]
26 | 100 to 500 | 102 | Cc1ncncc1-n1c(=O)c2ncn(C)c2c2ccc(C(F)(F)F)nc21 [Compound 79, 1-methyl-5-(4-methylpyrimidin-5-yl)-7-(trifluoromethyl)-1,5-dihydro-4H-imidazo[4,5-c][1,8]naphthyridin-4-one]
